The text below walks through data of PubChem BioAssay (NCI).

In general, TGI refers to the concentration giving total growth inhibition. By GI50 is commonly meant the concentration giving 50% growth inhibition.

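Step 1: Grow cells in 96-well plates. Step 2: Expose to compound for 48 hours at 5 concentrations. Step 3: Interpolate endpoints linearly; if unreached, use highest concentration. GI50 = concentration required for 50% inhibition of growth. TGI is the concentration that stops growth completely.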

Test systems include A549 NSCLC; MDA-MB-435; COLO 205 colon; NCI-H522 lung; OVCAR-8 ovarian; SF-268 CNS; HCT-116 colon; K-562 leukemia.
Common to all, as to assay: DTP human tumour cell line panel, 48 h

Turning to `CC(=O)O[C@@H]1C[C@@]2(C)[C@@H]3CC=C4[C@@H](C[C@H](O)C(=O)C4(C)C)[C@]3(C)C(=O)C[C@]2(C)[C@H]1[C@@](C)(O)C(=O)/C=C/C(C)(C)OC(C)=O`, the total growth inhibition concentration (TGI) is above 48.2 µM in the assay with A549 NSCLC; 37.9 µM in the assay with MDA-MB-435; above 39.7 µM in the assay on COLO 205 colon; 4.55 µM in the assay with NCI-H522 lung; above 49.1 µM with OVCAR-8 ovarian; above 41.9 µM in the assay with SF-268 CNS. Moreover, the figures for the concentration for total growth inhibition (TGI) in the assay with HCT-116 colon and in the assay with K-562 leukemia were above 72.9 µM and above 100 µM, respectively.

On to `C[CH2][Hg][S]c1ccccc1C(=O)O`, for which the GI50 in the assay on A549 NSCLC was 1780 nM; with MDA-MB-435, 1400 nM; in the assay on COLO 205 colon, 1.24 µM; with SF-268 CNS it was 1680 nM; in the assay on HCT-116 colon, 1310 nM. Besides, the TGI in the assay with A549 NSCLC worked out at 3.94 µM; in the assay with MDA-MB-435, 2.95 µM; in the assay with COLO 205 colon, 2.86 µM; with SF-268 CNS, 3.18 µM; with HCT-116 colon it was 2.58 µM.

Take `COc1cc(C(=O)Nc2cc(O)c(CC=C(C)C)c(O)c2)cc2c1O[C@]1(C)CC[C@@H](O)C(C)(C)[C@H]1C2`: the GI50 was 1050 nM with A549 NSCLC; 703 nM in the assay with MDA-MB-435; 1.37 µM in the assay on COLO 205 colon; 1920 nM in the assay with NCI-H522 lung; 623 nM in the assay on OVCAR-8 ovarian; 1790 nM in the assay with SF-268 CNS. Moreover, the 50% growth inhibitory concentration (GI50) in the assay on HCT-116 colon was 219 nM. Also, the total growth inhibition concentration (TGI) was 24.6 µM in the assay with A549 NSCLC; 41.4 µM in the assay on MDA-MB-435; 7.98 µM with COLO 205 colon; 14.6 µM in the assay on NCI-H522 lung; 44.2 µM with OVCAR-8 ovarian; 39.3 µM in the assay with SF-268 CNS. The total growth inhibition concentration (TGI) in the assay on HCT-116 colon was found to be 10.8 µM.

With `O=C(NNS(=O)(=O)c1ccc(Cl)cc1Cl)c1cccnc1Nc1ccc(Cl)cc1`, the GI50 with A549 NSCLC was 24400 nM; in the assay with MDA-MB-435, 27300 nM; in the assay on COLO 205 colon, 12.1 µM; in the assay with OVCAR-8 ovarian it was 26700 nM; with SF-268 CNS, 36500 nM; in the assay with HCT-116 colon, 15500 nM. For the same compound, in the assay with K-562 leukemia, the GI50 was 12.9 µM. Besides, the concentration for total growth inhibition (TGI) with A549 NSCLC is 70.1 µM; in the assay with MDA-MB-435, 81.7 µM; in the assay on COLO 205 colon, 24.4 µM; with OVCAR-8 ovarian, 74.9 µM; in the assay with SF-268 CNS it was above 100 µM; in the assay on HCT-116 colon, 28.8 µM. For the same compound, in the assay with K-562 leukemia, the concentration for total growth inhibition (TGI) is 25.6 µM.

As to `CN=C1OC2(c3ccccc3)C3=C(OC(=NC)N2C)C(=O)OC3(c2ccccc2)N1C` (configuration not stated), the total growth inhibition concentration (TGI) in the assay on A549 NSCLC, in the assay with COLO 205 colon, in the assay with NCI-H522 lung, with OVCAR-8 ovarian, in the assay on SF-268 CNS and in the assay on HCT-116 colon was above 100 µM in each case. For the same compound, the total growth inhibition concentration (TGI) in the assay on K-562 leukemia was above 100 µM.

Regarding `CNNC(=NS(=O)(=O)c1cc(C#N)c(NNC)cc1S)NNC`, the TGI with A549 NSCLC, in the assay with COLO 205 colon, in the assay on NCI-H522 lung, in the assay on OVCAR-8 ovarian, in the assay with SF-268 CNS and with HCT-116 colon was above 10 µM in each case. For the same compound, the TGI with K-562 leukemia is above 10 µM.

Consider `COc1cc(-c2nn(-c3cccc(NC(=O)CCN4CCN(Cc5ccccc5)CC4)c3)cc2-c2ccncc2)ccc1Cl`, for which the GI50 in the assay on A549 NSCLC is 1720 nM; in the assay with MDA-MB-435, 237 nM; in the assay on NCI-H522 lung, 359 nM; in the assay on OVCAR-8 ovarian it was 2680 nM; with SF-268 CNS, 1050 nM; with HCT-116 colon it was 406 nM. Further, the concentration for total growth inhibition (TGI) is 11.6 µM in the assay on A549 NSCLC; 0.737 µM in the assay with MDA-MB-435; 1.75 µM with NCI-H522 lung; 11.1 µM in the assay on OVCAR-8 ovarian; 3.84 µM in the assay with SF-268 CNS; 1.75 µM with HCT-116 colon.

In the case of `NNc1nnc(-c2nnc(NN)o2)o1`, the TGI in the assay with A549 NSCLC, in the assay on MDA-MB-435, with COLO 205 colon, in the assay with OVCAR-8 ovarian, in the assay on SF-268 CNS and in the assay on HCT-116 colon was above 10 µM throughout. In the assay on K-562 leukemia, this compound registered a total growth inhibition concentration (TGI) above 10 µM.

Turning to `COc1ccc(NC(=O)C(=O)/C=C(\O)c2ccccc2)cc1`, the total growth inhibition concentration (TGI) in the assay on A549 NSCLC, in the assay with MDA-MB-435, in the assay with COLO 205 colon, in the assay on OVCAR-8 ovarian, in the assay with SF-268 CNS and in the assay on K-562 leukemia was above 10 µM throughout.

With `C/C(=N\O)c1cccc(Nc2cc(-n3ccnc3)c3ccccc3n2)c1`, the GI50 in the assay on MDA-MB-435 was 10900 nM; in the assay on COLO 205 colon, 13 µM; in the assay with NCI-H522 lung, 14300 nM; in the assay on SF-268 CNS, above 100000 nM; in the assay on HCT-116 colon, 13900 nM; with K-562 leukemia, 18.9 µM. Further, the concentration for total growth inhibition (TGI) is 24.4 µM with MDA-MB-435; 29.1 µM in the assay on COLO 205 colon; 30.7 µM in the assay with NCI-H522 lung; above 100 µM with SF-268 CNS; 26.8 µM in the assay with HCT-116 colon; 73.1 µM in the assay on K-562 leukemia.
